Publication PMC10590383, “Repurposing conformational changes in ANL superfamily enzymes to rapidly generate biosensors for organic and amino acids” (Nature Communications, 2023)

How the values were obtained:
GECFINDER-Phe3 = molecular target: T1, GECFINDER-Phe3 (Aneurinibacillus migulanus, UniProt P0C061); test: Fluorescence dose-response of purified cpEGFP sensors (0.75 uM) in 100 mM Tris-HCl pH 7.5, room temperature, 1 mM ATP, 2.5 mM MgCl2; excitation 400, 460 or 480 nm by sensor, emission 510 nm; logistic five-parameter fit.; assay type: biochemical; settings: n = 3
T1 construct: gene grsA; GrsA-PheA-PCP; cpEGFP inserted in hinge B, linkers VF-QS
T1 sequence (P0C061 1-617): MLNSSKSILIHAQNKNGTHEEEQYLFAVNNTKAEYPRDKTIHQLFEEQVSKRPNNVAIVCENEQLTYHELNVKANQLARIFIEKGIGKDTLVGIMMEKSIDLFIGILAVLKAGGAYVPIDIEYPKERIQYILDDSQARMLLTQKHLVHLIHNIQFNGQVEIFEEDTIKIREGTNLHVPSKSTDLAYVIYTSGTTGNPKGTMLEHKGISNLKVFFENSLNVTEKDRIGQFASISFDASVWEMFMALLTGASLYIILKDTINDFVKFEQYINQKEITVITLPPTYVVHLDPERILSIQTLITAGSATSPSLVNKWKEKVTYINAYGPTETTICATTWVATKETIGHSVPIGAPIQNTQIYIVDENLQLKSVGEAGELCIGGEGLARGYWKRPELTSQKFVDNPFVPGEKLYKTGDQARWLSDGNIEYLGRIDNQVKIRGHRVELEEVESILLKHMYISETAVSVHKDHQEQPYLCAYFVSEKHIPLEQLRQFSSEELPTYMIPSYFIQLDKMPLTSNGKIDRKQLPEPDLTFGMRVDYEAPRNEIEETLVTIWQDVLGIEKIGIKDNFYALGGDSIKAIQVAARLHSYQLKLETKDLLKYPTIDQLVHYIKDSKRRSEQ

GECFINDER-Phe2 = molecular target: T2, GECFINDER-Phe2 (Aneurinibacillus migulanus, UniProt P0C061); test: as above; assay type: biochemical; settings: n = 3
T2 construct: gene grsA; GrsA-PheA-PCP; cpEGFP inserted in hinge B, linkers CV-LL

## N[C@@H](Cc1ccccc1)C(=O)O [Phe, phenylalanine]
GECFINDER-Phe3
  EC50: 1910 ± 80 nM
GECFINDER-Phe2
  EC50: 1470 ± 150 nM
